Results: paper PMC6600469, “Synthesis and Biological Evaluation of NH2-Sulfonyl Oseltamivir Analogues as Influenza Neuraminidase Inhibitors” (Molecules, 2019)
pIC50, pKi: −log10 of the molar value.

Assays:
[1] = target: H5N1 neuraminidase (A/Anhui/2005) (Influenza A virus (H5N1), UniProt A0A0C5AGB3); assay: biochemical; assay type: biochemical, influenza A H5N1 (A/Anhui/2005); settings: for inhibition at 10 µM / inhibition at 100 µM: read-out: inhibition rate against NA from H5N1 subtype
[2] = Metabolic stability in human liver microsomes in vitro; settings: for Remaining (T = 60 min): human liver microsomes 0.5 mg/mL, 37 °C, 60 min incubation; for half-life: human, liver microsomes
mutant NAs = settings: cited from earlier work
[3] = test system: NAs from H5N1 (A/Chicken/China/1220/2012); settings: read-out: IC50 against NAs from H5N1; cited from earlier work
neuraminidase = settings: cited from earlier work

SMILES | melting point | inhibition at 10 µM [1] | inhibition at 100 µM [1] | other results
CCCCS(=O)(=O)N[C@H]1CC(C(=O)O)=C[C@@H](OC(CC)CC)[C@@H]1NC(C)=O [4d, (3R, 4R, 5S)-4-acetamido-5-(n-butylsulfonyl)amino-3-(pentan-3-yloxy) cyclohex-1-enecarboxylic acid] | 183.3 to 184.4 °C | 30.3% | 53.5% | 
CCC(CC)O[C@@H]1C=C(C(=O)O)C[C@H](NS(=O)(=O)c2cccc([N+](=O)[O-])c2)[C@H]1NC(C)=O [4j, (3R, 4R, 5S)-4-acetamido-5-((3-nitrophenyl)sulfonyl)amino-3-(pentan-3-yloxy)cyclohex-1-enecarboxylic acid] | 114.3 to 115.9 °C | 20.3% | 33.8% | 
CCC(CC)O[C@@H]1C=C(C(=O)O)C[C@H](NS(=O)(=O)c2cccc(N)c2)[C@H]1NC(C)=O [6j, (3R, 4R, 5S)-4-acetamido-5-((3-aminophenyl)sulfonyl)amino-3-(pentan-3-yloxy)cyclohex-1-enecarboxylic acid] | 177.4 to 178.1 °C | 37.3% | 52.7% | 
CCCCCS(=O)(=O)N[C@H]1CC(C(=O)O)=C[C@@H](OC(CC)CC)[C@@H]1NC(C)=O [4e, (3R, 4R, 5S)-4-acetamido-5-(n-pentylsulfonyl)amino-3-(pentan-3-yloxy)cyclohex-1-enecarboxylic acid] | 179.1 to 182.8 °C | 28.5% | 50.5% | 
CCCS(=O)(=O)N[C@H]1CC(C(=O)O)=C[C@@H](OC(CC)CC)[C@@H]1NC(C)=O [4c, (3R, 4R, 5S)-4-acetamido-5-(n-propylsulfonyl)amino-3-(pentan-3-yloxy)cyclohex-1-enecarboxylic acid] | 196.3 to 198.6 °C | 43.2% | 56.5% | 
CCC(CC)O[C@@H]1C=C(C(=O)O)C[C@H](NS(=O)(=O)c2ccc(C(F)(F)F)cc2)[C@H]1NC(C)=O [4h, (3R, 4R, 5S)-4-acetamido-5-((4-(trifluoromethyl)phenyl)sulfonyl)amino-3-(pentan-3-yloxy)cyclohex-1-enecarboxylic acid] |  | 40.4% | 79.2% | 
CCC(CC)O[C@@H]1C=C(C(=O)O)C[C@H](NS(=O)(=O)c2ccccc2[N+](=O)[O-])[C@H]1NC(C)=O [4i, (3R, 4R, 5S)-4-acetamido-5-((2-nitrophenyl)sulfonyl)amino-3-(pentan-3-yloxy)cyclohex-1-enecarboxylic acid] |  | 32% | 70.1% | 
CCC(CC)O[C@@H]1C=C(C(=O)O)C[C@H](NS(=O)(=O)C(F)(F)F)[C@H]1NC(C)=O [4f, (3R, 4R, 5S)-4-acetamido-5-((trifluoromethyl)sulfonyl)amino-3-(pentan-3-yloxy)cyclohex-1-enecarboxylic acid] | 193.1 to 195.4 °C | 24.8% | 49.7% | 
CCC(CC)O[C@@H]1C=C(C(=O)O)C[C@H](N)[C@H]1NC(C)=O [OC, oseltamivir carboxylate, reference compound] |  |  |  | inhibition rate against NA from H5N1 subtype ([1]; 10 µM): 91.0%; inhibition rate against NA from H5N1 subtype ([1]; 100 µM): 95.0%
O=C(O)Cc1ccccc1Nc1c(Cl)cccc1Cl [Diclofenac, diclofenac] |  |  |  | Remaining (T = 60 min) [2]: 1.1%; half-life [2]: 9.2 min
CCC(CC)O[C@@H]1C=C(C(=O)O)C[C@H](NC(C)=O)[C@H]1NC(C)=O [D] |  |  |  | inhibitory activities against mutant NAs (mutant NAs): enhanced inhibitory activities
CCC(CC)O[C@@H]1C=C(C(=O)O)C[C@H](NS(=O)(=O)c2ccc(NC(C)=O)cc2)[C@H]1NC(C)=O [4g, (3R, 4R, 5S)-4-acetamido-5-((4-(acetamido)pheny)sulfonyl)amino-3-(pentan-3-yloxy)cyclohex-1-enecarboxylic acid] | 236.7 to 238.6 °C |  |  | inhibition rate against NA from H5N1 subtype ([1]; 100 µM): little inhibition
CCC(CC)O[C@@H]1C=C(C(=O)O)C[C@H](NS(C)(=O)=O)[C@H]1NC(C)=O [4a, (3R, 4R, 5S)-4-acetamido-5-(methylsulfonyl)amino-3-(pentan-3-yloxy) cyclohex-1-enecarboxylic acid] |  | 73.9% | 91.8% | Remaining (T = 60 min) [2]: 101.6%; half-life [2]: > 145 min
CCC(CC)O[C@@H]1C=C(C(=O)O)C[C@H](NCc2ccc(-c3ccccc3)cc2)[C@H]1NC(C)=O [A] |  |  |  | pIC50 [3]: 8.72
CCC(CC)O[C@@H]1C=C(C(=O)O)C[C@H](NS(=O)(=O)CC)[C@H]1NC(C)=O [4b, (3R, 4R, 5S)-4-acetamido-5-(ethylsulfonyl)amino-3-(pentan-3-yloxy)cyclohex-1-enecarboxylic acid] | 187.7 to 190 °C | 50.3% | 85.1% | 
C[C@]12CC[C@H]3[C@@H](CCC4=CC(=O)CC[C@@]43C)[C@@H]1CC[C@@H]2O [Testosterone, testosterone] |  |  |  | Remaining (T = 60 min) [2]: 3.8%; half-life [2]: 12.5 min
CCC(CC)O[C@@H]1C=C(C(=O)O)C[C@H](NS(=O)(=O)c2ccc([N+](=O)[O-])cc2)[C@H]1NC(C)=O [4k, (3R, 4R, 5S)-4-acetamido-5-((4-nitrophenyl)sulfonyl)amino-3-(pentan-3-yloxy)cyclohex-1-enecarboxylic acid] | 187.4 to 189.2 °C | 0.5% | 38.9% | 
CCC(CC)O[C@@H]1C=C(C(=O)O)C[C@H](NS(=O)(=O)c2ccc(N)cc2)[C@H]1NC(C)=O [6k, (3R, 4R, 5S)-4-acetamido-5-((4-aminophenyl)sulfonyl)amino-3-(pentan-3-yloxy)cyclohex-1-enecarboxylic acid] | 176.7 to 181.4 °C |  | 12.5% | 
CCC(CC)O[C@@H]1C=C(C(=O)O)C[C@H](NCc2ccc(-c3cccs3)cc2)[C@H]1NC(C)=O [B] |  |  |  | pIC50 [3]: 8.68
CCC(CC)O[C@@H]1CC(C(=O)O)=C[C@H](n2cc(C(O)CC)nn2)[C@H]1NC(C)=O (stereo partly shown) [C] |  |  |  | pKi (neuraminidase): 7.14
CCC(CC)O[C@@H]1C=C(C(=O)O)C[C@H](NS(=O)(=O)c2ccccc2N)[C@H]1NC(C)=O [6i, (3R, 4R, 5S)-4-acetamido-5-((2-aminophenyl)sulfonyl)amino-3-(pentan-3-yloxy)cyclohex-1-enecarboxylic acid] | 161.8 to 164 °C | 63.8% | 86.6% | 
